Reference: patent US9339486B2, “Heterocyclic modulators of cannabinoid receptors” (THE CLEVELAND CLINIC FOUNDATION, priority 2008, dated 2016)

Key:
rCB2 receptors = rCB2 receptors (Rattus norvegicus (Rat), UniProt Q9QZN9); experiment: cAMP activation assay rCB2; format: cell-based
Procedure: The compound of Example 3 was tested for agonist activity at the rat CB1 (rCB1) and rCB2 receptors, at eight concentrations, in duplicate: 10, 3, 1, 0.3, 0.1, 0.03, 0.01 and 0.001 μM. Recombinant cells grown to mid-log phase in culture media without antibiotics were detached with PBS containing 5 mM EDTA, centrifuged and resuspended in assay buffer at a concentration of 16.6×10^5 cells/ml. The test was performed in 96 well plates. For testing, 12 μl of cells ([…]) were mixed with 12 μl of agonist at increasing concentrations. […] The plates were then incubated for 30 min at room temperature. After addition of the lysis buffer, cAMP concentrations were estimated, according to the manufacturer specification, with the HTRF kit from Cis-Bio International (Catalogue number 62AM2PEB).

CB1 [1] = biological target: T1, CB1 (Homo sapiens (Human), UniProt P21554); experiment: CB1 Binding Assay ([3H]CP 55940, cell membrane homogenates); settings: for % Inhibition of Control Specific Binding / % of Control Specific Binding Mean / % of Control Specific Binding 1st / % of Control Specific Binding 2nd: CB1, test concentration 1.0E−05 (MD); for % of Control Specific Binding 1st: first replicate; for % of Control Specific Binding 2nd: second replicate; for % Inhibition of Control Specific Binding CB1: as repeated in Table 3
Procedure: (§1) After being incubated, the samples were filtered rapidly under vacuum through glass fiber filters (GF/B; Packard) presoaked with 0.3% PEI and rinsed several times with ice-cold buffer containing 50 mM Tris HCl (pH 7.4) and 0.5% BSA using a 96-sample cell harvester (Unifilter; Packard). The filters were dried then counted for radioactivity in a scintillation counter (Topcount; Packard) using a scintillation cocktail (Microscint 0; Packard). The results were expressed as a percentage of the inhibition of the control radioligand-specific binding. The reference standard compounds were tested in each experiment at several concentrations to obtain a competition curve from which its IC50 was calculated.

CB2 [2] = biological target: T2, CB2 (Homo sapiens (Human), UniProt P34972); experiment: CB2 Binding Assay ([3H]WIN 55212-2, cell membrane homogenates); settings: for % Inhibition of Control Specific Binding / % of Control Specific Binding Mean / % of Control Specific Binding 1st / % of Control Specific Binding 2nd: CB2, test concentration 1.0E−05 (MD); for % of Control Specific Binding 1st: first replicate; for % of Control Specific Binding 2nd: second replicate; for % Inhibition of Control Specific Binding CB2: as repeated in Table 4
Procedure: as §1, with “Cell membrane homogenates (15 μg protein) were incubated for 120 min at 37° C. with 0.8 nM [3H]WIN 55212-2 (the reference standard [Munro, 1993 #1321]) in the absence or presence of the test compound in a buffer containing 50 mM HEPES/Tris HCL (pH 7.4), 5 mM MgCl2, 2.5 mM EGTA, and 0.1% BSA. Nonspecific binding was determined in the presence of 10 μM WIN 55212-2. After” for “After”

CB1 [3] = biological target: T1, CB1; experiment: CB1/CB2 Functional Assay (GTPγ[35S]), CB1 membranes; format: biochemical; settings: for % Activation Average: reference agonist CP55,940
Procedure: (§2) A dose response curve was generated at eight concentrations in duplicate on CB1 and CB2 in light of reference agonists. The reference agonists for cannabinoid receptors was CP55,940. See FIGS. 1A, 1B, 2A, 2B, 3A and 3B.
(§3) Membranes (CB1, ES-110-MG or CB2, ES-111-MG) were mixed with GDP (volume:volume) and incubated for at least 15 min on ice. In parallel, GTPγ[^35S] were mixed with the beads (volume:volume) just before starting the reaction. The following reagents were successively added in the wells of an Optiplate: 50 μl of ligand, 20 μl of the membranes:GDP mix, 10 μl of assay buffer for agonist testing and 20 μl of the GTPγ[^35S]: beads mix. The plates were covered with a topseal, shaken on an orbital shaker for 2 min, and then incubated between 30 to 60 min. at room temperature. Then the plates were centrifuged for 10 min at 2000 rpm, incubated at room temperature between 1 to 4 hours and counted for 1 min with a PerkinElmer TopCount reader.

CB2 [4] = biological target: T2, CB2; experiment: CB1/CB2 Functional Assay (GTPγ[35S]), CB2 membranes; format: biochemical; settings: for EC50: read-out: EC50 (nM) for GTP Binding; for % Activation Average: reference agonist CP55,940
Procedure: as §2, §3

[5] = system: paclitaxel-induced neuropathy; experiment: Prevention of neuropathy induced by paclitaxel; format: in vivo, rat; settings: paclitaxel model
Procedure: A mixture of saline and CREMOPHOR® ELP 10% was used as vehicle for paclitaxel. It was injected at a concentration of 1.0 mg/kg intraperitoneally to the chemotherapy-treated group of rats on 4 consecutive days for a final cumulative dose of 4 mg/kg to 18 rats.
Paw withdrawal thresholds were determined daily in both hind paws of each animal using calibrated von Frey monofilaments according to an up-down procedure. A series of von Frey filaments with exponentially incremental degrees of stiffness (0.4, 0.7, 1.2, 2.0, 3.6, 5.5, 8.5, and 15.1 g) was used to measure the 50% threshold for both hindpaw withdrawal in awake, unrestrained rats. Chaplan, S. R., Quantitative assessment of tactile allodynia in the rat paw, Journal of Neuroscience Methods, 1994, 53:55-63. Brisk paw withdrawal from the pressure of a filament gently bent against the plantar surface of the paw was defined as a positive response, and absence of withdrawal within 6 sec was considered a negative response. The series of filaments touched the hindpaw in sequential ascending or descending order of stiffness until the threshold of response was crossed (allowing about 10 sec between each increment). Each time the threshold was crossed, the direction of stimulus presentation was reversed and the procedure resumed. Four responses were collected after the first threshold detection, and the 50% withdrawal thresholds was interpolated. In cases in which the response thresholds fall outside the range of detection, 15.1 and 0.25 g were assigned for continuous negative or positive responses, respectively, to the limits of stimulation. FIG. 17 and FIG. 18 show results from these experiments and that peripheral neuropathy started to develop within a few days. FIG. 18 reflects that a plateau was reached by the 10th day.
Group 1 of rats received paclitaxel for four days, as described immediately above in subpart (A) titled “Paclitaxel-induced Neuropathy.” In group 2, a dose of 15 mg/kg of the compound of Example 3, injected intraperitoneally was administered 30 minutes prior to the administration of paclitaxel. In group 3, vehicle of the compound of Example 3 was administered 30 min prior to the administration of paclitaxel. Paw withdrawal thresholds were determined daily in both hind paws of each animal using calibrated von Frey monofilaments according to an up-down procedure as described immediately above in subpart (A) titled “Paclitaxel-induced Neuropathy.” The results are shown in FIG. 17.
FIGS. 19A and 19B show results from an experiment in which three groups of rats were administered 0.25 mL of the compound of Example 3 or the vehicle, a mixture of NMP, propylene glycol, chromophore ELP (25%, 25%, 10%) in sterile water 30 min prior to the administration of paclitaxel. Two of the three experimental groups continued to receive either the vehicle or the compound of Example 3 daily for 11 more days.

naïve rats = experiment: Open field chamber testing; format: in vivo, rat; settings: i.p.: Example 3 15 mg/kg, WIN 55,212-2 7 mg/kg, haloperidol 1 mg/kg
Procedure: The automated open-field chamber (Med Associates ENV-515 Test Environment, St. Albans, Vt.) 43.2×43.2×30.5 cm (L×W×H) equipped with three pairs of 16 infrared arrays that continually monitored the animal's movement was used to determine potential CNS effects of the compound of Example 3, WIN55212-2, and haloperidol in naïve rats. Rats were individually tested 15 min after i.p. drug administration. The infrared beams were set 2.5 cm apart horizontally and at a height of 3 cm above the floor, with the rearing array set at 12 cm from the floor. The area in the box was divided into 4 equal quadrants (zones), with data collected within each quadrant and across quadrants (zone entries). An ambulatory movement was defined as a motion of at least 5 cm and was coded by quadrant. Vertical movements were counted when the rat moved vertically a minimum of 12 cm from the floor. Zone entries were defined as an entry into a zone (from another zone). Entry into a zone was counted when the rat was far enough into the zone to break 2 sets of photoelectric beams for the new zone beams during an ambulatory movement.

T2 sequence (P34972 whole entry): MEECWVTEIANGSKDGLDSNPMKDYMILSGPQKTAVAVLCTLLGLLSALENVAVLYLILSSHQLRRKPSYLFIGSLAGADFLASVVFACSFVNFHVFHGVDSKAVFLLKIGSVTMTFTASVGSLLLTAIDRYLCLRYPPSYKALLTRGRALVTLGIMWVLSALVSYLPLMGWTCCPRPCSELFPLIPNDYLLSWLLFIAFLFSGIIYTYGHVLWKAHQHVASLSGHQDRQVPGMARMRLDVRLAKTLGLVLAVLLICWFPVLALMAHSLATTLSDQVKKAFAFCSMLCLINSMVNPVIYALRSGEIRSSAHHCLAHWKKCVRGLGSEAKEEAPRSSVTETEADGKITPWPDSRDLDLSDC
T1 sequence (P21554 whole entry): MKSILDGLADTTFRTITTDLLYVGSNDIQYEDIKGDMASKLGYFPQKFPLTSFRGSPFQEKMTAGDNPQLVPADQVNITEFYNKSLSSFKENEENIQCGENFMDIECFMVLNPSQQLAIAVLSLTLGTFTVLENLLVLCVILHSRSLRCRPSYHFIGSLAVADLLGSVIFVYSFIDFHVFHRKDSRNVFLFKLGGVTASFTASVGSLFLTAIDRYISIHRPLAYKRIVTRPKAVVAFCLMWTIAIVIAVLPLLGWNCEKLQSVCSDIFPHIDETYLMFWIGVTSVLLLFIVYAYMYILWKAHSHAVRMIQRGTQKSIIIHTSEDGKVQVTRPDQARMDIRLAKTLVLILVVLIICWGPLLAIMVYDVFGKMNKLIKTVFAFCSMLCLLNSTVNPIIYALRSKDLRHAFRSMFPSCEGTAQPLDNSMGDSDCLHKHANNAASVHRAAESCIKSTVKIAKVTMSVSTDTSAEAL

CCCCCCC(C)(C)c1ccc([C@@H]2C[C@H](O)CC[C@H]2CCCO)c(O)c1 [CP55,940, reference compound]
EC50 (rCB2 receptors): 1.13 ± 0.13 nM

CC1(Cc2ccccc2)COc2cc(C(=O)NC3CCCCC3)ccc21 (stereo not drawn) [Example 2, 3-Benzyl-3-methyl-2,3-dihydro-benzofuran-6-carboxylic acid cyclohexylamide]
% Inhibition of Control Specific Binding (CB1 [1]): 68% | % of Control Specific Binding Mean (CB1 [1]): 31.8% | % of Control Specific Binding 1st (CB1 [1]): 29.9% | % of Control Specific Binding 2nd (CB1 [1]): 33.8% | % Inhibition of Control Specific Binding CB1 (CB1 [1]): 68% | % Inhibition of Control Specific Binding (CB2 [2]): 85% | % of Control Specific Binding Mean (CB2 [2]): 14.9% | % of Control Specific Binding 1st (CB2 [2]): 21.3% | % of Control Specific Binding 2nd (CB2 [2]): 8.6% | % Inhibition of Control Specific Binding CB2 (CB2 [2]): 85% | Compound Function (CB1 [3]): Inverse | % Activation Average (CB1 [3]): −35.79% | Compound Function (CB2 [4]): Agonist | EC50 (CB2 [4]): 479 nM | % Activation Average (CB2 [4]): 52.94%

CC1(Cc2ccccc2)COc2ccc(C(=O)NC3CCCCC3)cc21 (stereo not drawn) [Example 5, 3-benzyl-3-methyl-2,3-dihydrobenzofuran-5-carboxylic acid-cyclohexylamide]
% Inhibition of Control Specific Binding (CB1 [1]): 43% | % of Control Specific Binding Mean (CB1 [1]): 57.2% | % of Control Specific Binding 1st (CB1 [1]): 53.5% | % of Control Specific Binding 2nd (CB1 [1]): 60.8% | % Inhibition of Control Specific Binding CB1 (CB1 [1]): 43% | % Inhibition of Control Specific Binding (CB2 [2]): 72% | % of Control Specific Binding Mean (CB2 [2]): 27.5% | % of Control Specific Binding 1st (CB2 [2]): 29.9% | % of Control Specific Binding 2nd (CB2 [2]): 25.1% | % Inhibition of Control Specific Binding CB2 (CB2 [2]): 72% | Compound Function (CB1 [3]): Inverse | % Activation Average (CB1 [3]): −36.02% | Compound Function (CB2 [4]): Agonist | EC50 (CB2 [4]): 409 nM | % Activation Average (CB2 [4]): 55.71%

COc1ccc2[nH]cc(CCNC(C)=O)c2c1 [Melatonin, reference compound]
protection against neuropathy [5]: did not provide any protection

Cc1c(C(=O)c2cccc3ccccc23)c2cccc3c2n1[C@H](CN1CCOCC1)CO3 [WIN 55,212-2, reference compound]
exploratory behavior in the open field (distance traveled, ambulatory time, rearing, zone entries) (naïve rats): decreased exploratory behavior
